{"source": "patent US20100279957A1", "about": "“PREDICTING RESPONSIVENESS TO CANCER THERAPEUTICS” (priority 2007, published 2010)", "key": {"NCI-60 cell line panel": {"system": "NCI-60 cell line panel", "parameters": "key: Sensitive; Resistant", "settings": "cited from earlier work"}, "[1]": {"system": "breast cancer, advanced ovarian cancer", "settings": "responders/patients, cited from earlier work"}, "[2]": {"system": "breast cancer, advanced ovarian cancer", "assay": "Clinical response to single agent chemotherapy in patients (breast neoadjuvant docetaxel; ovarian salvage docetaxel, topotecan, taxol; adriamycin treated patients)", "type": "in vivo, human", "settings": "Ovarian tumor data set; responders/patients", "from_the_text": "The development of a gene expression signature capable of predicting in vitro docetaxel sensitivity provides a tool that might be useful in predicting response to the drug in patients. We made use of published studies with clinical and genomic data that linked gene expression data with clinical response to docetaxel in a breast cancer neoadjuvant study^50 (FIG. 1D) to test the capacity of the in vitro docetaxel sensitivity predictor to accurately identify those patients that responded to docetaxel. […] We extended this further by predicting the response to docetaxel as salvage therapy for ovarian cancer.\nGiven the ability of the in vitro developed gene expression profiles to predict response to docetaxel in the clinical samples, we extended this approach to test the ability of additional signatures to predict response to commonly used salvage therapies for ovarian cancer and an independent data set of samples from adriamycin treated patients (Evans W, GSE650, GSE651). […] In each case, the positive and negative predictive values confirm the validity and clinical utility of the approach (Table 16).\nFull details of the methods used for RNA extraction and development of gene expression signatures representing deregulation of oncogenic pathways in the tumor samples were recently described.^36 Response to therapy was evaluated using standard criteria for patients with measurable disease, based upon WHO guidelines.^28"}}, "note": "Read-outs that look alike come from different tables or passages of the source."}
{"smiles": "O=c1[nH]cc(F)c(=O)[nH]1", "note": "[5-FU, 5-fluorouracil]", "values": [{"measurement": "Resistant or Sensitive (Res or Sen)", "setting": "NCI-60 cell line panel; A498, Renal", "result": "Sen"}, {"measurement": "Resistant or Sensitive (Res or Sen)", "setting": "NCI-60 cell line panel; COLO 205, Colon", "result": "Sen"}, {"measurement": "Resistant or Sensitive (Res or Sen)", "setting": "NCI-60 cell line panel; EKVX, Non-Small Cell Lung", "result": "Res"}, {"measurement": "Resistant or Sensitive (Res or Sen)", "setting": "NCI-60 cell line panel; HCT-116, Colon", "result": "Sen"}, {"measurement": "Resistant or Sensitive (Res or Sen)", "setting": "NCI-60 cell line panel; LOX IMVI, Melanoma", "result": "Sen"}, {"measurement": "Resistant or Sensitive (Res or Sen)", "setting": "NCI-60 cell line panel; M14, Melanoma", "result": "Res"}, {"measurement": "Resistant or Sensitive (Res or Sen)", "setting": "NCI-60 cell line panel; MCF7, Breast", "result": "Sen"}, {"measurement": "Resistant or Sensitive (Res or Sen)", "setting": "NCI-60 cell line panel; MDA-MB-435, Melanoma", "result": "Res"}, {"measurement": "Resistant or Sensitive (Res or Sen)", "setting": "NCI-60 cell line panel; NCI-H460, Non-Small Cell Lung", "result": "Sen"}, {"measurement": "Resistant or Sensitive (Res or Sen)", "setting": "NCI-60 cell line panel; NCI/ADR-RES, Ovarian", "result": "Res"}, {"measurement": "Resistant or Sensitive (Res or Sen)", "setting": "NCI-60 cell line panel; OVCAR-8, Ovarian", "result": "Res"}, {"measurement": "Resistant or Sensitive (Res or Sen)", "setting": "NCI-60 cell line panel; SK-MEL-5, Melanoma", "result": "Sen"}, {"measurement": "Resistant or Sensitive (Res or Sen)", "setting": "NCI-60 cell line panel; SN12C, Renal", "result": "Res"}, {"measurement": "Resistant or Sensitive (Res or Sen)", "setting": "NCI-60 cell line panel; SW-620, Colon", "result": "Res"}, {"measurement": "Resistant or Sensitive (Res or Sen)", "setting": "NCI-60 cell line panel; UO-31, Renal", "result": "Sen"}]}
{"smiles": "COc1cccc2c1C(=O)c1c(O)c3c(c(O)c1C2=O)C[C@@](O)(C(=O)CO)C[C@@H]3O[C@H]1C[C@H](N)[C@H](O)[C@H](C)O1", "note": "[adriamycin]", "values": [{"measurement": "Actual Overall Response", "setting": "[1]; Evans et al. patient data set", "result": "24/122 (19.6%)"}]}
{"smiles": "CC(=O)O[C@@]12CO[C@@H]1C[C@H](O)[C@@]1(C)C(=O)[C@H](O)C3=C(C)[C@@H](OC(=O)[C@H](O)[C@@H](NC(=O)OC(C)(C)C)c4ccccc4)C[C@@](O)([C@@H](OC(=O)c4ccccc4)[C@H]21)C3(C)C", "note": "[docetaxel]", "values": [{"measurement": "Actual Overall Response", "setting": "[2]", "result": "7/14 (50%)"}, {"measurement": "Actual Overall Response", "setting": "[1]; Breast Tumor Data, neoadjuvant (Chang et al.)", "result": "13/24 (54.1%)"}]}
{"smiles": "CC(=O)O[C@H]1C(=O)[C@@]2(C)[C@H]([C@H](OC(=O)c3ccccc3)[C@]3(O)C[C@H](OC(=O)[C@H](O)[C@@H](NC(=O)c4ccccc4)c4ccccc4)C(C)=C1C3(C)C)[C@]1(OC(C)=O)CO[C@@H]1C[C@@H]2O", "note": "[taxol, paclitaxel]", "values": [{"measurement": "Actual Overall Response", "setting": "[2]", "result": "20/35 (57.1%)"}]}
{"smiles": "CC[C@@]1(O)C(=O)OCc2c1cc1n(c2=O)Cc2cc3c(CN(C)C)c(O)ccc3nc2-1", "note": "[topotecan]", "values": [{"measurement": "Actual Overall Response", "setting": "[2]", "result": "20/48 (41.6%)"}]}
